In US20250188084A1, “COMPOUNDS AND METHODS FOR MODULATING CDK9 ACTIVITY” (KRONOS BIO, INC., priority 2020, published 2025):

How the values were obtained:
[1] = molecular target: T1, CDK9 (Homo sapiens, UniProt P50750); assay: CDK9 degradation by HiBit assay, NCIH211 cells; assay type: cell-based; settings: NCIH211 cells with endogenously tagged N-terminal CDK9-HiBit, 24 hours incubation, read-out: HiBit-NCIH211.2 DC50
T1 construct: NCIH211 cells with endogenously tagged N-terminal CDK9-HiBit; endogenous in cells; host or cells: NCIH211 cells (endogenous CDK9 locus tagged with HiBit)
T1 sequence (P50750 whole entry): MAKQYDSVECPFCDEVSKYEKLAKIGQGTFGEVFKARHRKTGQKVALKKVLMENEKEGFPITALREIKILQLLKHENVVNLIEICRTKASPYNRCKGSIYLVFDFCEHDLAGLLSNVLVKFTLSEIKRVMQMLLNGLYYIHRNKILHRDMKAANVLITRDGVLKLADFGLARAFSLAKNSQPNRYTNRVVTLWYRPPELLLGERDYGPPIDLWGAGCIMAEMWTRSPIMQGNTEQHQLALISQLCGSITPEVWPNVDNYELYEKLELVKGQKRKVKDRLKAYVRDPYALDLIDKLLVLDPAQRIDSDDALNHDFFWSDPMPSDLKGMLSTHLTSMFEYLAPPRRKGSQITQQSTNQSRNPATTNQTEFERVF
T1 sequence (O60563 whole entry partner): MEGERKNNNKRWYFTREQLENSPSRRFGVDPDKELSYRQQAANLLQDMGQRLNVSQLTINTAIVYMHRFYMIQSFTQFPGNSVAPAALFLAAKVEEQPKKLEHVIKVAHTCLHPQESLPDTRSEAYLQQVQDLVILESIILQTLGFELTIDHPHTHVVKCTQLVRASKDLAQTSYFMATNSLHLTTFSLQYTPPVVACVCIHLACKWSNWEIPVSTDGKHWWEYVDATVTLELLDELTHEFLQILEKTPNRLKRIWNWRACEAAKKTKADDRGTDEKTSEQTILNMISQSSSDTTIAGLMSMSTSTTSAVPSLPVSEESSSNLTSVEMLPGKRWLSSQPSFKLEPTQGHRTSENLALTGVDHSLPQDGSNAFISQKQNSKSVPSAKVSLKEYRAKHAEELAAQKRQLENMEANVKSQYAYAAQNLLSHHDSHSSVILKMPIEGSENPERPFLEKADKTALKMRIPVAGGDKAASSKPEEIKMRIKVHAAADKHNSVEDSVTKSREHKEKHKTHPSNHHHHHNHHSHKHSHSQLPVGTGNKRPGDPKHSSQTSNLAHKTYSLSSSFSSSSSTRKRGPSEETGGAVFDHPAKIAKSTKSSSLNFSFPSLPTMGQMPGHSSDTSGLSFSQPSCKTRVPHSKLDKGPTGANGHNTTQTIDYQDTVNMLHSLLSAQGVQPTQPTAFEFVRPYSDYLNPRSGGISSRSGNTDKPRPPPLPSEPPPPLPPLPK
Description: (§1) Exemplary compounds of the invention were tested for degradation of CDK9. The compounds were tested in 10-dose DC50 duplicate mode with a 3-fold serial dilution starting at 10 μM by HiBit assay (Promega, Inc) as a direct measurement of CDK9 presence, with incubation time of 24 hours using either NCIH211 cells with endogenously tagged N-terminal CDK9-HiBit or NCIH1048 cells with endogenously tagged N-terminal CDK9-HiBit. A control compound (THAL-SNS-032, CAS 2139287-33-3) was tested in 10-dose DC50 mode with 3-fold serial dilution starting at 10 μM. Data was normalized to positive (medium only) and negative (cells with no treatment) controls and curve fits were analyzed with CDK9 as % response vs. log [compound concentration] using a 4-parameter logistic model by GraphPad software. For Table 2: A is <100, B is <1000 C is <10,000, D is >10,000 and ND is Not Determined.

[2] = molecular target: T1, CDK9; assay: CDK9 degradation by HiBit assay, NCIH1048 cells; assay type: cell-based; settings: NCIH1048 cells with endogenously tagged N-terminal CDK9-HiBit, 24 hours incubation, read-out: HiBit-NCIH1048.3 DC50
Description: as §1

[3] = numeric value (control compound)

Compound | DC50 [1] | also measured
CC(C)(C)c1cnc(CSc2cnc(NC(=O)C3CCN(CC(=O)NCCOCCOCCOCCNc4cccc5c4C(=O)N(C4CCC(=O)NC4=O)C5=O)CC3)s2)o1 (centres unmarked) [THAL-SNS-032, reference compound] | – | DC50 [1, 3]: 0.053 µM; DC50 [2, 3]: 0.011 µM
CCC(CC)c1cc(N[C@H]2CC[C@H](NC(=O)COCCOCCNC(=O)COc3cccc4c3C(=O)N(C3CCC(=O)NC3=O)C4=O)C2)n2ncc(Cl)c2n1 (stereo partly drawn) [Compound 4.0, N-[(1S,3S)-3-[[3-chloro-5-(1-ethylpropyl)pyrazolo[1,5-a]pyrimi-din-7-yl]amino]cyclopentyl]-2-[2-[2-[[2-[2-(2,6-dioxo-3-piperidyl)-1,3-dioxo-isoindolin-4-yl]oxyacetyl]amino]ethoxy]ethoxy]acetamide] | > 10 µM | –
CCC(CC)c1cc(N[C@H]2CC[C@H](NCC(=O)NCc3cn(CCOCCOCCOCC(=O)N[C@H](C(=O)N4C[C@H](O)C[C@H]4C(=O)NCc4ccc(-c5scnc5C)cc4)C(C)(C)C)nn3)C2)n2nccc2n1 [Compound 27.0] | > 10 µM | –
CCC(CC)c1cc(N[C@H]2CC[C@H](NC(=O)COCCOCCOCCNC(=O)COc3cccc4c3C(=O)N(C3CCC(=O)NC3=O)C4=O)C2)n2nccc2n1 (stereo partly drawn) [Compound 2.0, 2-[2-[2-[2-[[2-[2-(2,6-dioxo-3-piperidyl)-1,3-dioxo-isoindolin-4-yl]oxyacetyl]amino]ethoxy]ethoxy]ethoxy]-N-[(1S,3S)-3-[[5-(1-ethylpropyl)pyrazolo[1,5-a]pyrimidin-7-yl]amino]cyclopentyl]acetamide] | > 10 µM | –
CCC(CC)c1cc(N[C@H]2CC[C@H](NCCOCCOCCn3cc(COCCOCC(=O)N[C@H](C(=O)N4C[C@H](O)C[C@H]4C(=O)NCc4ccc(-c5scnc5C)cc4)C(C)(C)C)nn3)C2)n2nccc2n1 [Compound 14.0, (2S,4R)-4-hydroxy-N-[[4-(4-methylthiazol-5-yl)phenyl]methyl]-1-[(2S)-3,3-dimethyl-2-[[2-[2-[[1-[2-[2-[2-[[(1S,3S)-3-[[5-(1-ethylpropyl)pyrazolo[1,5-a]pyrimidin-7-yl]amino]cyclopentyl]amino]ethoxy]ethoxy]ethyl]triazol-4-yl]methoxy]ethoxy]acetyl]amino]butanoyl]pyrrolidine-2-carboxamide] | > 10 µM | –
CCC(CC)c1cc(N[C@H]2CC[C@H](NCC(=O)NCc3cn(CCOCCOc4cc(-c5scnc5C)ccc4CNC(=O)[C@@H]4C[C@@H](O)CN4C(=O)[C@H](C(C)C)N4Cc5ccccc5C4=O)nn3)C2)n2nccc2n1 [Compound 29.0] | > 10 µM | –
CCC(CC)c1cc(N[C@H]2CC[C@H](NCc3cn(CCOCC(=O)N[C@H](C(=O)N4C[C@H](O)C[C@H]4C(=O)NCc4ccc(-c5scnc5C)cc4)C(C)(C)C)nn3)C2)n2nccc2n1 [Compound 33.0] | > 10 µM | –
CCC(CC)c1cc(N[C@H]2CC[C@H](NCCOCCOCCOCCn3cc(CNc4cccc5c4C(=O)N(C4CCC(=O)NC4=O)C5=O)nn3)C2)n2nccc2n1 (stereo partly drawn) [Compound 12.0, 2-(2,6-dioxo-3-piperidyl)-4-[[1-[2-[2-[2-[2-[[(1S,3S)-3-[[5-(1-ethylpropyl)pyrazolo[1,5-a]pyrimidin-7-yl]amino]cyclopentyl]amino]ethoxy]ethoxy]ethoxy]ethyl]triazol-4-yl]methylamino]isoindoline-1,3-dione] | > 10 µM | –
CCC(CC)c1cc(N[C@H]2CC[C@H](NCc3cn(CCOCCOc4cc(-c5scnc5C)ccc4CNC(=O)[C@@H]4C[C@@H](O)CN4C(=O)[C@H](C(C)C)N4Cc5ccccc5C4=O)nn3)C2)n2nccc2n1 [Compound 37.0] | > 10 µM | –
CCC(CC)c1cc(N[C@H]2CC[C@H](NCc3cn(CCOCCOCCOCCOCCOc4cc(-c5scnc5C)ccc4CNC(=O)[C@@H]4C[C@@H](O)CN4C(=O)[C@H](C(C)C)N4Cc5ccccc5C4=O)nn3)C2)n2nccc2n1 [Compound 40.0] | > 10 µM | –

The next lines start with results.

DC50 [1] | Compound | also measured
< 10 µM | CCC(CC)c1cc(N[C@H]2CC[C@H](NCC(=O)NCCCc3cn(CCOCCOCCOCCOc4cc(-c5scnc5C)ccc4CNC(=O)[C@@H]4C[C@@H](O)CN4C(=O)[C@H](C(C)C)N4Cc5ccccc5C4=O)nn3)C2)n2ncc(Cl)c2n1 [Compound 53.0] | DC50 [2]: < 10 µM
< 0.1 µM | C/C=C(\CC)c1cc(N[C@H]2CC[C@H](NCC(=O)N3CCN(CCCCNc4cccc5c4C(=O)N(C4CCC(=O)NC4=O)C5=O)CC3)C2)n2ncc(Cl)c2n1 (stereo partly drawn) [Compound 59.0, 4-[4-[4-[2-[[(1S,3S)-3-[[3-chloro-5-[(E)-1-ethylprop-1-enyl]pyrazolo[1,5-a]pyrimidin-7-yl]amino]cyclopentyl]amino]acetyl]piperazin-1-yl]butylamino]-2-(2,6-dioxo-3-piperidyl)isoindoline-1,3-dione] | DC50 [2]: < 0.1 µM
< 1 µM | CCC(CC)c1cc(N[C@H]2CC[C@H](NCC(=O)N3CCN(CCCCNc4cccc5c4C(=O)N(C4CCC(=O)NC4=O)C5=O)CC3)C2)n2nccc2n1 (some centres unmarked) [Compound 46.0] | DC50 [2]: < 0.1 µM
< 1 µM | CCC(CC)c1cc(N[C@H]2CC[C@H](NCC(=O)NCCOCCOCCOCCNc3cccc4c3C(=O)N(C3CCC(=O)NC3=O)C4=O)C2)n2ncc(Cl)c2n1 (stereo partly drawn) [Compound 6.0, N-[2-[2-[2-[2-[[2-(2,6-dioxo-3-piperidyl)-1,3-dioxo-isoindolin-4-yl]amino]ethoxy]ethoxy]ethoxy]ethyl]-2-[[(1S,3S)-3-[[3-chloro-5-(1-ethylpropyl)pyrazolo[1,5-a]pyrimidin-7-yl]amino]cyclopentyl]amino]acetamide] | DC50 [2]: < 0.1 µM
< 0.1 µM | CCC(CC)c1cc(N[C@H]2CC[C@H](NCC(=O)N3CCN(CCCCNc4cccc5c4C(=O)N(C4CCC(=O)NC4=O)C5=O)CC3)C2)n2ncc(Cl)c2n1 (some centres unmarked) [Compound 45.0] | DC50 [2]: < 0.1 µM
< 1 µM | CCC(CC)c1cc(N[C@H]2CC[C@H](NCC(=O)N3CCN(CCNc4cccc5c4C(=O)N(C4CCC(=O)NC4=O)C5=O)CC3)C2)n2nccc2n1 (some centres unmarked) [Compound 47.0] | DC50 [2]: < 0.1 µM
< 10 µM | CCC(CC)c1cc(N[C@H]2CC[C@H](NCCN3CCN(CCNc4cccc5c4C(=O)N(C4CCC(=O)NC4=O)C5=O)CC3)C2)n2nccc2n1 (stereo partly drawn) [Compound 19.0, 2-(2,6-dioxo-3-piperidyl)-4-[2-[4-[2-[[(1S,3S)-3-[[5-(1-ethylpropyl)pyrazolo[1,5-a]pyrimidin-7-yl]amino]cyclopentyl]amino]ethyl]piperazin-1-yl]ethylamino]isoindoline-1,3-dione] | –
< 10 µM | CCC(CC)c1cc(N[C@H]2CC[C@H](NCc3cn(CCOCCOCCOCCNc4cccc5c4C(=O)N(C4CCC(=O)NC4=O)C5=O)nn3)C2)n2nccc2n1 (stereo partly drawn) [Compound 10.0, 2-(2,6-dioxo-3-piperidyl)-4-[2-[2-[2-[2-[4-[[[(1S,3S)-3-[[5-(1-ethylpropyl)pyrazolo[1,5-a]pyrimidin-7-yl]amino]cyclopentyl]amino]methyl]triazol-1-yl]ethoxy]ethoxy]ethoxy]ethylamino]isoindoline-1,3-dione] | –
> 10 µM | CCC(CC)c1cc(N[C@H]2CC[C@H](NCCOCCOCCOCCNc3cccc4c3C(=O)N(C3CCC(=O)NC3=O)C4=O)C2)n2nccc2n1 (stereo partly drawn) [Compound 7.0, 2-(2,6-dioxo-3-piperidyl)-4-[2-[2-[2-[2-[[(1S,3S)-3-[[5-(1-ethylpropyl)pyrazolo[1,5-a]pyrimidin-7-yl]amino]cyclopentyl]amino]ethoxy]ethoxy]ethoxy]ethylamino]isoindoline-1,3-dione] | –
< 10 µM | CCC(CC)c1cc(N[C@H]2CC[C@H](NCC(C)N3CCN(CCNc4cccc5c4C(=O)N(C4CCC(=O)NC4=O)C5=O)CC3)C2)n2nccc2n1 (stereo partly drawn) [Compound 17.0, 2-(2,6-dioxo-3-piperidyl)-4-[2-[4-[2-[[(1S,3S)-3-[[5-(1-ethylpropyl)pyrazolo[1,5-a]pyrimidin-7-yl]amino]cyclopentyl]amino]-1-methyl-ethyl]piperazin-1-yl]ethylamino]isoindoline-1,3-dione] | –
> 10 µM | CCC(CC)c1cc(N[C@H]2CC[C@H](NCc3cn(CCOCCOCCOc4cc(-c5scnc5C)ccc4CNC(=O)[C@@H]4C[C@@H](O)CN4C(=O)[C@H](C(C)C)N4Cc5ccccc5C4=O)nn3)C2)n2nccc2n1 [Compound 38.0] | –
> 10 µM | CCC(CC)c1cc(N[C@H]2CC[C@H](NCC(=O)NCCCn3cc(CCOCCNc4cccc5c4C(=O)N(C4CCC(=O)NC4=O)C5=O)nn3)C2)n2nccc2n1 (some centres unmarked) [Compound 20.0] | –
> 10 µM | CCC(CC)c1cc(N[C@H]2CC[C@H](NCC(=O)NCc3cn(CCOCCOCCOCCOc4cc(-c5scnc5C)ccc4CNC(=O)[C@@H]4C[C@@H](O)CN4C(=O)[C@H](C(C)C)N4Cc5ccccc5C4=O)nn3)C2)n2nccc2n1 [Compound 31.0] | –
> 10 µM | CCC(CC)c1cc(N[C@H]2CC[C@H](NCc3cn(CCOCCOCCOCC(=O)N[C@H](C(=O)N4C[C@H](O)C[C@H]4C(=O)NCc4ccc(-c5scnc5C)cc4)C(C)(C)C)nn3)C2)n2nccc2n1 [Compound 35.0] | –
< 0.1 µM | CCC(CC)c1cc(N[C@H]2CC[C@H](NCC(=O)N3CCN(CCNc4cccc5c4C(=O)N(C4CCC(=O)NC4=O)C5=O)CC3)C2)n2ncc(Cl)c2n1 (some centres unmarked) [Compound 49.0] | –
